Test results as given in ChEMBL document CHEMBL3045421, “5-Nitro-heteroarylidene analogs of 2-thiazolylimino-4-thiazolidinones as a novel series of antibacterial agents” (2013).
Converted amounts (≈) assume the structure as drawn.

Experiments:
Assay type in all cases: functional
[1] = system: Helicobacter pylori; test: Antibacterial activity against Helicobacter pylori strain 3 assessed as diameter of growth inhibition zone at 16 ug/disk after 3-5 days by filter paper disk diffusion method; settings: read-out: DIZ
[2] = system: Helicobacter pylori; test: Antibacterial activity against Helicobacter pylori strain 2 assessed as diameter of growth inhibition zone at 64 ug/disk after 3-5 days by filter paper disk diffusion method; settings: read-out: DIZ
[3] = system: Escherichia coli; test: microbe, parasite or virus in culture; settings: ATCC 8739, 24 h
Description: Antibacterial activity against Escherichia coli ATCC 8739 assessed as growth inhibition after 24 hr by microdilution method

[4] = system: Helicobacter pylori; test: Antibacterial activity against Helicobacter pylori strain 3 assessed as diameter of growth inhibition zone at 32 ug/disk after 3-5 days by filter paper disk diffusion method; settings: read-out: DIZ
[5] = system: Staphylococcus aureus; test: microbe, parasite or virus in culture; settings: ATCC 6538p, 24 h
Description: Antibacterial activity against Staphylococcus aureus ATCC 6538p assessed as growth inhibition after 24 hr by microdilution method

[6] = system: Helicobacter pylori; test: Antibacterial activity against Helicobacter pylori strain 1 assessed as diameter of growth inhibition zone at 16 ug/disk after 3-5 days by filter paper disk diffusion method; settings: read-out: DIZ
[7] = system: Helicobacter pylori; test: Antibacterial activity against Helicobacter pylori strain 2 assessed as diameter of growth inhibition zone at 8 ug/disk after 3-5 days by filter paper disk diffusion method; settings: read-out: DIZ
[8] = system: Helicobacter pylori; test: Antibacterial activity against Helicobacter pylori strain 1 assessed as diameter of growth inhibition zone at 64 ug/disk after 3-5 days by filter paper disk diffusion method; settings: read-out: DIZ
[9] = system: Helicobacter pylori; test: Antibacterial activity against Helicobacter pylori strain 2 assessed as diameter of growth inhibition zone at 16 ug/disk after 3-5 days by filter paper disk diffusion method; settings: read-out: DIZ
[10] = system: Helicobacter pylori; test: Antibacterial activity against Helicobacter pylori strain 2 assessed as diameter of growth inhibition zone at 32 ug/disk after 3-5 days by filter paper disk diffusion method; settings: read-out: DIZ
[11] = system: Helicobacter pylori; test: Antibacterial activity against Helicobacter pylori strain 1 assessed as diameter of growth inhibition zone at 8 ug/disk after 3-5 days by filter paper disk diffusion method; settings: read-out: DIZ
[12] = system: Klebsiella pneumoniae; test: microbe, parasite or virus in culture; settings: ATCC 10031, 24 h
Description: Antibacterial activity against Klebsiella pneumoniae ATCC 10031 assessed as growth inhibition after 24 hr by microdilution method

[13] = system: Pseudomonas aeruginosa; test: microbe, parasite or virus in culture; settings: ATCC 9027, 24 h
Description: Antibacterial activity against Pseudomonas aeruginosa ATCC 9027 assessed as growth inhibition after 24 hr by microdilution method

[14] = system: Staphylococcus epidermidis; test: microbe, parasite or virus in culture; settings: ATCC 12228, 24 h
Description: Antibacterial activity against Staphylococcus epidermidis ATCC 12228 assessed as growth inhibition after 24 hr by microdilution method

[15] = system: Helicobacter pylori; test: Antibacterial activity against Helicobacter pylori strain 3 assessed as diameter of growth inhibition zone at 8 ug/disk after 3-5 days by filter paper disk diffusion method; settings: read-out: DIZ
[16] = system: Helicobacter pylori; test: Antibacterial activity against Helicobacter pylori strain 1 assessed as diameter of growth inhibition zone at 32 ug/disk after 3-5 days by filter paper disk diffusion method; settings: read-out: DIZ
[17] = system: Helicobacter pylori; test: Antibacterial activity against Helicobacter pylori strain 3 assessed as diameter of growth inhibition zone at 64 ug/disk after 3-5 days by filter paper disk diffusion method; settings: read-out: DIZ
[18] = system: Bacillus subtilis; test: microbe, parasite or virus in culture; settings: ATCC 6633, 24 h
Description: Antibacterial activity against Bacillus subtilis ATCC 6633 assessed as growth inhibition after 24 hr by microdilution method

`Cn1c(/C=C2\S/C(=N/c3nc(-c4ccccc4)cs3)NC2=O)ccc1[N+](=O)[O-]` showed a zone of inhibition at 16 µg/disc [1] of 6 mm, a zone of inhibition at 64 µg/disc [2] of 6 mm and an MIC [3] greater than 100 µg/mL. It also gave a zone of inhibition at 32 µg/disc [4] of 6 mm, an MIC [5] greater than 100 µg/mL and a zone of inhibition at 16 µg/disc [6] of 6 mm. For the same compound, the zone of inhibition at 8 µg/disc [7] was 6 mm, the zone of inhibition at 64 µg/disc [8] was 6 mm and the zone of inhibition at 16 µg/disc [9] was 6 mm. The zone of inhibition at 32 µg/disc [10] was 6 mm, the zone of inhibition at 8 µg/disc [11] was 6 mm and the MIC [12] was greater than 100 µg/mL. It also gave an MIC [13] greater than 100 µg/mL, an MIC [14] of 50 µg/mL (≈ 122 µM) and a zone of inhibition at 8 µg/disc [15] of 6 mm. The zone of inhibition at 32 µg/disc [16] was 6 mm, the zone of inhibition at 64 µg/disc [17] was 6 mm and the MIC [18] was 50 µg/mL (≈ 122 µM).

`Cn1c(/C=C2\S/C(=N/c3nccs3)NC2=O)ccc1[N+](=O)[O-]` gave a zone of inhibition at 16 µg/disc [1] greater than 50 mm, a zone of inhibition at 64 µg/disc [2] greater than 50 mm and an MIC [3] of 12.5 µg/mL (≈ 37.3 µM). It also gave a zone of inhibition at 32 µg/disc [4] greater than 50 mm, an MIC [5] of 0.78 µg/mL (≈ 2.33 µM) and a zone of inhibition at 16 µg/disc [6] greater than 50 mm. The zone of inhibition at 8 µg/disc [7] was greater than 50 mm, the zone of inhibition at 64 µg/disc [8] was greater than 50 mm and the zone of inhibition at 16 µg/disc [9] was greater than 50 mm. It also gave a zone of inhibition at 32 µg/disc [10] greater than 50 mm, a zone of inhibition at 8 µg/disc [11] greater than 50 mm and an MIC [12] of 0.39 µg/mL (≈ 1.16 µM). The MIC [13] was greater than 100 µg/mL, the MIC [14] was 0.19 µg/mL (≈ 0.567 µM) and the zone of inhibition at 8 µg/disc [15] was greater than 50 mm. The zone of inhibition at 32 µg/disc [16] was greater than 50 mm, the zone of inhibition at 64 µg/disc [17] was greater than 50 mm and the MIC [18] was 0.19 µg/mL (≈ 0.567 µM).

In the case of `O=C1N/C(=N\c2nccs2)S/C1=C\c1ccc([N+](=O)[O-])o1`, the zone of inhibition at 16 µg/disc [1] was greater than 50 mm, the zone of inhibition at 64 µg/disc [2] was greater than 50 mm and the MIC [3] was 1.56 µg/mL (≈ 4.84 µM). The zone of inhibition at 32 µg/disc [4] was greater than 50 mm, the MIC [5] was 0.97 µg/mL (≈ 3.01 µM) and the zone of inhibition at 16 µg/disc [6] was greater than 50 mm. For the same compound, the zone of inhibition at 8 µg/disc [7] was greater than 50 mm, the zone of inhibition at 64 µg/disc [8] was greater than 50 mm and the zone of inhibition at 16 µg/disc [9] was greater than 50 mm. For the same compound, the zone of inhibition at 32 µg/disc [10] was greater than 50 mm, the zone of inhibition at 8 µg/disc [11] was greater than 50 mm and the MIC [12] was 1.56 µg/mL (≈ 4.84 µM). For the same compound, the MIC [13] was 0.39 µg/mL (≈ 1.21 µM), the MIC [14] was 0.006 µg/mL (≈ 0.0186 µM) and the zone of inhibition at 8 µg/disc [15] was greater than 50 mm. The zone of inhibition at 32 µg/disc [16] was greater than 50 mm, the zone of inhibition at 64 µg/disc [17] was greater than 50 mm and the MIC [18] was 0.19 µg/mL (≈ 0.589 µM).

In the case of `COc1ccc(-c2csc(/N=C3\NC(=O)/C(=C/c4ccc([N+](=O)[O-])n4C)S3)n2)cc1`, the zone of inhibition at 16 µg/disc [1] was 6 mm, the zone of inhibition at 64 µg/disc [2] was 6 mm and the MIC [3] was greater than 100 µg/mL. The zone of inhibition at 32 µg/disc [4] was 6 mm, the MIC [5] was greater than 100 µg/mL and the zone of inhibition at 16 µg/disc [6] was 6 mm. The zone of inhibition at 8 µg/disc [7] was 6 mm, the zone of inhibition at 64 µg/disc [8] was 6 mm and the zone of inhibition at 16 µg/disc [9] was 6 mm. It also gave a zone of inhibition at 32 µg/disc [10] of 6 mm, a zone of inhibition at 8 µg/disc [11] of 6 mm and an MIC [12] of 100 µg/mL (≈ 227 µM). It also gave an MIC [13] greater than 100 µg/mL, an MIC [14] of 25 µg/mL (≈ 56.6 µM) and a zone of inhibition at 8 µg/disc [15] of 6 mm. The zone of inhibition at 32 µg/disc [16] was 6 mm, the zone of inhibition at 64 µg/disc [17] was 6 mm and the MIC [18] was 50 µg/mL (≈ 113 µM).

`O=C(O)c1cn(C2CC2)c2cc(N3CCNCC3)c(F)cc2c1=O` [CIPROFLOXACIN] was tested, and the MIC [5] was 0.19 µg/mL (≈ 0.573 µM), the MIC [12] was 0.006 µg/mL (≈ 0.0181 µM) and the MIC [13] was 0.39 µg/mL (≈ 1.18 µM). For the same compound, the MIC [14] was 0.097 µg/mL (≈ 0.293 µM) and the MIC [18] was 0.19 µg/mL (≈ 0.573 µM).

For `O=C1N/C(=N\c2nc3ccccc3s2)S/C1=C\c1ccc([N+](=O)[O-])s1`, the MIC [3] was greater than 100 µg/mL, the MIC [5] was 0.39 µg/mL (≈ 1 µM) and the MIC [12] was greater than 100 µg/mL. It also gave an MIC [13] greater than 100 µg/mL, an MIC [14] of 0.19 µg/mL (≈ 0.489 µM) and an MIC [18] of 0.78 µg/mL (≈ 2.01 µM).

In the case of `Cc1ncc([N+](=O)[O-])n1CCO` [METRONIDAZOLE], the zone of inhibition at 16 µg/disc [1] was 14 mm, the zone of inhibition at 16 µg/disc [6] was 14 mm and the zone of inhibition at 16 µg/disc [9] was 14 mm.

In the case of `O=C1N/C(=N\c2nc(-c3ccccc3)cs2)S/C1=C\c1ccc([N+](=O)[O-])s1`, the MIC [3] was greater than 100 µg/mL, the MIC [5] was greater than 100 µg/mL and the MIC [12] was greater than 100 µg/mL. It also gave an MIC [13] greater than 100 µg/mL, an MIC [14] greater than 100 µg/mL and an MIC [18] greater than 100 µg/mL.
